Laboratory results from US20090182133A1 (priority 2005, published 2009).
Entries after “also recorded” stand apart in the source; their conditions may differ. Read-outs that look alike come from different tables or passages of the source.

Assays:
HCV 3CL proteinase = HCV 3CL proteinase (Human coronavirus 229E, UniProt P0C6X1); assay: biochemical; assay type: binding, common cold virus (HCoV-229E antigenic type)
SARS 3CL proteinase [1] = biological target: T1, SARS 3CL proteinase (Severe acute respiratory syndrome coronavirus, UniProt P0C6X7); assay: biochemical; design: species or system SARS-CoV
SARS 3CL proteinase [2] = biological target: T1, SARS 3CL proteinase; assay: biochemical; assay type: binding, SARS-CoV

HCV 3CL proteinase, sequence (P0C6X1 2966-3267 limits assumed): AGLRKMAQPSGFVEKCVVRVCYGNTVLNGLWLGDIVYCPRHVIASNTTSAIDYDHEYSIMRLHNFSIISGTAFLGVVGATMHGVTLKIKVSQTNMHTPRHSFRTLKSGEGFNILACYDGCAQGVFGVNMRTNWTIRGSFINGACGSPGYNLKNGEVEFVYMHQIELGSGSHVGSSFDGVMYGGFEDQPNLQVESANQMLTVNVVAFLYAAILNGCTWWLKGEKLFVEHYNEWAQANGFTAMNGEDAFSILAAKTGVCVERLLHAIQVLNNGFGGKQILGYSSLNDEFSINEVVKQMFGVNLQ

SMILES	Kd (HCV 3CL proteinase) [µM]	affinity with HCV 3CL proteinases (in words) (HCV 3CL proteinase)	IC50 (SARS 3CL proteinase [1]) [µM]	Kd (SARS 3CL proteinase [2]) [µM]	coupling/affinity with SARS 3CL (in words) (SARS 3CL proteinase [2])	melting point [°C]	Kd (HCV 3CL proteinase; read-out: KD HCV 3CL) [µM]	Kd (SARS 3CL proteinase [2]; read-out: KD SARS 3CL) [µM]
O=c1c(O[C@@H]2O[C@H](CO)[C@@H](O)[C@H](O)[C@H]2O)c(-c2ccc(O)c(O)c2)oc2cc(O)cc(O)c12 [IA-1, Quercetin-3-O-β-D-glucopyranoside]	28.8	weaker affinity						
O=c1c(O[C@@H]2OC[C@@H](O)[C@@H](O)[C@@H]2O)c(-c2ccc(O)c(O)c2)oc2cc(O)cc(O)c12 [IA-3, Quercetin-3-O-β-D-arabinopyranoside]	3.76	high affinity	31.6	13.2	couple strongly			
C[C@H]1O[C@@H](Oc2c(-c3ccc(O)c(O)c3)oc3cc(O)cc(O)c3c2=O)[C@H](O)[C@@H](O)[C@H]1O [IA-4, Quercetin-3-O-β-D-fucopyranoside]	5.75	high affinity	24.1	104	couple strongly; also recorded: weaker affinity			
O=c1c(OC2CCCCC2)c(-c2ccc(O)c(O)c2)oc2cc(O)ccc12 [IB-1, 3-O-cyclohexyl-3′,4′,7-trihydroxy-flavonol]	3.52	high affinity	33.1	33.7	couple strongly	98 to 100		
O=c1c(OC2CCCCCC2)c(-c2ccc(O)c(O)c2)oc2cc(O)ccc12 [IB-3, 3-O-cycloheptyl-3′,4′,7-trihydroxy-flavonol]	1.51	high affinity		33.5	couple strongly	68 to 71		
O=c1c(OCC2COc3ccccc3O2)c(-c2cc(O)cc(O)c2)oc2cc(O)ccc12 (stereo not drawn) [IB-4, 3-(2,3-dihydro-benzo[1,4]dioxan-2-yl-methoxy)-3′,5′,7-trihydroxy-flavonol]		high affinity			couple strongly		2.6	16.8
